Kd data for 3 compounds are collected here from PMC7469393, “Binding of 2-(Triazolylthio)acetamides to Metallo-β-lactamase CcrA Determined with NMR” (ACS Omega, 2020).

What is called Kd is the free concentration of one partner at which half of the binding sites on the other are occupied at equilibrium, for simple one-to-one binding.

Structures are written as SMILES.

Assay [1] concerns the target T1, CcrA (Bacteroides fragilis, UniProt P25910). Kind of assay: 1H, […] HSQC NMR titration, chemical shift perturbation, fast exchange. The class given is binding.
Assay [2] has as its target T1, CcrA. Kind of assay: 1H, […] HSQC NMR titration, slow exchange (relative peak intensities). The assay is classed as binding.

T1 sequence (P25910 19-249): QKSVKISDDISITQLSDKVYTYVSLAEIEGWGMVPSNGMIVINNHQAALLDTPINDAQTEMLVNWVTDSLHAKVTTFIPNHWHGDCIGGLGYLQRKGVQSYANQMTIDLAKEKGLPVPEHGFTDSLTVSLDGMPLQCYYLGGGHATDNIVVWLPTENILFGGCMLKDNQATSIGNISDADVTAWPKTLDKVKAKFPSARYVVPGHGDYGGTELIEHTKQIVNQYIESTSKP

Turning to `O=C(CSc1nnc(-c2ccccc2C(=O)O)[nH]1)Nc1nc2ccccc2s1` [compound 4, 4], the Kd in assay [1] is 11 ± 11 µM. For `O=C(CSc1nnc(-c2ccccc2C(=O)O)[nH]1)Nc1ccccc1` [compound 5, 5], the Kd in assay [1] is 34 ± 43 µM. In assay [2], `O=C(CSc1nnc(-c2ccccc2C(=O)O)[nH]1)Nc1ccc(Cl)cc1` [compound 6, 6] showed a Kd of roughly 2.3 µM.
